Some results are limits rather than exact numbers.

As a reminder, the GI50 is the concentration at which growth is held to half of that of the control. High values mean less potent growth inhibition, low ones more potent growth inhibition.

What all share (test): Cell growth inhibitory effect, cell counting kit 8, 6 days
What all share (type): cell-based

In assay [1] the test system is HuH28, a human liver cancer cell line. As to conditions: 144 h, HuH28 cells, 6 days incubation. A digest of the protocol:
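HuH28 human liver cancer cells (JCRB0426) were maintained below 80% density in RPMI1640 with 10% FBS and grown in 96-well flat-bottom plates. Test compound was serially diluted to 5 times final concentration and added with DMSO at 0.1%, then incubated for 6 days at 37° C in 5% CO2. Viable cells were counted with cell counting kit 8 at dosing and on day 6, using a 2 or 3 hour color reaction and absorbance at 450 nm. GI50 was derived from growth inhibition rates.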

Assay [2] relates to NCI-H226 cells, a human mesothelioma cell line. As to conditions: 144 h, 6 days incubation. Put shortly:
(§1)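 Cells grown in RPMI1640 with 10% FBS, plated at 500 cells/well (NCI-H226, NCI-H322) and incubated one day before serially diluted compound was added (0.1% DMSO final). After 6 days at 37 °C, 5% CO2, CCK-8 colour developed 2–3 h and A450 read; GI50 derived from growth inhibition rate.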

The test system of assay [3] is NCI-H322 cells, a human lung cancer cell line. Conditions: 144 h, 6 days incubation. Put shortly:
as §1

Where [4] appears, read: group 100 nmol/L to 1 μmol/L (upper bound given in μmol/L).

Consider `C=CC(=O)NCc1ccc(Oc2cccc(C(F)(F)F)c2)c2ncccc12` [Compound 137, N-([8-{3-(Trifluoromethyl)phenoxy}quinolin-5-yl]methyl)acrylamide], for which the GI50 in assay [1] was less than 3000 nM; in assay [2] (group less than 100 nmol/L), less than 100 nM; in assay [3] it was less than 1000 nM.
The matching figures for `C=CC(=O)NCc1ccc(Oc2ccc(C(F)(F)F)cc2)c2ncccc12` [Compound 138, N-([8-{4-(Trifluoromethyl)phenoxy}quinolin-5-yl]methyl)acrylamide]: less than 3000 nM, less than 100 nM and less than 1000 nM.
`C=CC(=O)NCc1ccc(Oc2ccc(C(F)(F)F)cc2)c2nc(Cl)ccc12` [Compound 139, N-([2-Chloro-8-{4-(trifluoromethyl)phenoxy}quinolin-5-yl]methyl)acrylamide]: the GI50 in assay [1] was less than 3000 nM; in assay [2] (group less than 100 nmol/L) it was less than 100 nM; in assay [3], less than 1000 nM.
As to `C=CC(=O)NCc1ccc(Oc2ccc(C(F)(F)F)nc2)c2ncccc12` [Compound 143, N-{(8-[{6-(Trifluoromethyl)pyridin-3-yl}oxy]quinolin-5-yl)methyl}acrylamide], the values for the GI50 in assay [1], in assay [2] (group less than 100 nmol/L) and in assay [3] were less than 3000 nM, less than 100 nM and less than 1000 nM, respectively.
On to `C=CC(=O)NCc1cc(Oc2ccc(C(F)(F)F)nc2)nc2ccccc12` [Compound 149, N-{(2-[{6-(Trifluoromethyl)pyridin-3-yl}oxy]quinolin-4-yl)methyl}acrylamide], for which the values for the GI50 in assay [1], in assay [2] (group less than 100 nmol/L) and in assay [3] were less than 3000 nM, less than 100 nM and less than 1000 nM, respectively.
Consider `C=CC(=O)NCc1cc(Oc2ccnc(Cl)c2)nc2ccccc12` [Compound 150, N-([2-{(2-Chloropyridin-4-yl)oxy}quinolin-4-yl]methyl)acrylamide], for which the GI50 is less than 3000 nM in assay [1], less than 100 nM in assay [2] (group less than 100 nmol/L) and less than 1000 nM in assay [3].
The matching figures for `C=CC(=O)NCc1cc(Oc2ccnc(C(F)(F)F)c2)nc2ccccc12` [Compound 151, N-{(2-[{2-(Trifluoromethyl)pyridin-4-yl}oxy]quinolin-4-yl)methyl}acrylamide]: less than 3000 nM, less than 100 nM and less than 1000 nM.
Turning to `C=CC(=O)NC1COc2c(cccc2Oc2cnc(C(F)(F)F)nc2)C1` (stereo not drawn) [Compound 155, N-(8-[{2-(Trifluoromethyl)pyrimidin-5-yl}oxy]chroman-3-yl)acrylamide], the GI50 in assay [1] was less than 3000 nM; in assay [2] (group less than 100 nmol/L), less than 100 nM; in assay [3] it was less than 1000 nM.
Consider `C=CC(=O)NC1CCOc2c1ccc(Oc1ccc(F)c(F)c1)c2OC` (stereo not drawn) [Compound 164, N-{7-(3,4-Difluorophenoxy)-8-methoxychroman-4-yl}acrylamide], for which the GI50 in assay [1] is less than 3000 nM; in assay [2] (setting [4]), 100 to 1000 nM; in assay [3] it was less than 1000 nM.
For the compound `C=CC(=O)NC1CCOc2c1ccc(Oc1ccc(C(F)(F)F)nc1)c2Cl` (stereo not drawn) [Compound 168, N-(8-Chloro-7-[{6-(trifluoromethyl)pyridin-3-yl}oxy]chroman-4-yl)acrylamide], the values for the GI50 in assay [1], in assay [2] (group less than 100 nmol/L) and in assay [3] were less than 3000 nM, less than 100 nM and less than 1000 nM, respectively.
For the compound `C=CC(=O)NC1CCOc2c1ccc(Oc1ccc(C(F)(F)F)nc1)c2Br` (stereo not drawn) [Compound 169, N-(8-Bromo-7-[{6-(trifluoromethyl)pyridin-3-yl}oxy]chroman-4-yl)acrylamide], the GI50 was less than 3000 nM in assay [1], less than 100 nM in assay [2] (group less than 100 nmol/L) and less than 1000 nM in assay [3].
On to `C=CC(=O)NCc1ccc(Oc2ccc(Cl)cc2)c2c1CCCO2` [Compound 176, N-[{8-(4-Chlorophenoxy)chroman-5-yl}methyl]acrylamide], for which the GI50 in assay [1] was less than 3000 nM; in assay [2] (group less than 100 nmol/L), less than 100 nM; in assay [3], less than 1000 nM.
As to `Nc1cncc(OCC2CCC(F)(F)CC2)c1` [Compound 192, 5-[(4,4-Difluorocyclohexyl)methoxy]pyridin-3-amine], the GI50 in assay [1] is less than 3000 nM; in assay [2] (setting [4]) it was 100 to 1000 nM; in assay [3], less than 1000 nM.
Consider `C=CC(=O)NCc1ccc(Oc2ccc(C(F)(F)F)cc2)c2ncc(C)cc12` [Compound 199, N-([3-Methyl-8-{4-(trifluoromethyl)phenoxy}quinolin-5-yl]methyl)acrylamide], for which the GI50 in assay [1] was less than 3000 nM; in assay [2] (group less than 100 nmol/L), less than 100 nM; in assay [3], less than 1000 nM.
For `C=CC(=O)NCc1ccc(Oc2ccc(C(F)(F)F)nc2)c2ncc(C)cc12` [Compound 200, N-{(3-Methyl-8-[{6-(trifluoromethyl)pyridin-3-yl}oxy]quinolin-5-yl)methyl}acrylamide], the GI50 in assay [1] was less than 3000 nM; in assay [2] (group less than 100 nmol/L), less than 100 nM; in assay [3], less than 1000 nM.
In the same order, the values of `C=CC(=O)NCc1ccc(Oc2ccc(C(F)(F)F)cc2)c2nccc(C)c12` [Compound 201, N-([4-Methyl-8-{4-(trifluoromethyl)phenoxy}quinolin-5-yl]methyl)acrylamide] are less than 3000 nM, less than 100 nM and less than 1000 nM.
For the compound `C=CC(=O)NCc1ccc(Sc2ccc(C(F)(F)F)cc2)c2ncccc12` [Compound 202, N-{(8-[{4-(Trifluoromethyl)phenyl}thio]quinolin-5-yl)methyl}acrylamide], the figures for the GI50 in assay [1], in assay [2] (group less than 100 nmol/L) and in assay [3] were less than 3000 nM, less than 100 nM and less than 1000 nM, respectively.
As to `C=CC(=O)NCc1ccc(Nc2ccc(C(F)(F)F)cc2)c2ncccc12` [Compound 203, N-{(8-[{4-(Trifluoromethyl)phenyl}amino]quinolin-5-yl)methyl}acrylamide], the figures for the GI50 in assay [1], in assay [2] (group less than 100 nmol/L) and in assay [3] were less than 3000 nM, less than 100 nM and less than 1000 nM, respectively.
Regarding `C=CC(=O)NCc1ccc(C(O)c2ccc(C(F)(F)F)cc2)c2ncccc12` (stereo not drawn) [Compound 206, N-{(8-[Hydroxy{4-(trifluoromethyl)phenyl}methyl]quinolin-5-yl)methyl}acrylamide], the GI50 is less than 3000 nM in assay [1], 100 to 1000 nM in assay [2] (setting [4]) and less than 1000 nM in assay [3].
As to `C=CC(=O)NCc1ccc(C(=O)c2ccc(C(F)(F)F)cc2)c2ncccc12` [Compound 208, N-([8-{4-(Trifluoromethyl)benzoyl}quinolin-5-yl]methyl)acrylamide], the GI50 is less than 3000 nM in assay [1], 100 to 1000 nM in assay [2] (setting [4]) and less than 1000 nM in assay [3].
With `C=CC(=O)NCc1ccc(Cc2ccc(C(F)(F)F)cc2)c2ncccc12` [Compound 211, N-([8-{4-(Trifluoromethyl)benzyl}quinolin-5-yl]methyl)acrylamide], the GI50 in assay [1] was less than 3000 nM; in assay [2] (group less than 100 nmol/L), less than 100 nM; in assay [3], less than 1000 nM.
The matching figures for `C=CC(=O)NCc1ccc(Oc2ccc(C(F)(F)F)cc2)c2nc(C)ccc12` [Compound 212, N-([2-Methyl-8-{4-(trifluoromethyl)phenoxy}quinolin-5-yl]methyl)acrylamide]: less than 3000 nM, less than 100 nM and less than 1000 nM.
As for `C=CC(=O)NCc1cnc(Oc2ccc(C(F)(F)F)cc2)c2ccccc12` [Compound 222, N-([1-{4-(Trifluoromethyl)phenoxy}isoquinolin-4-yl]methyl)acrylamide], the GI50 was less than 3000 nM in assay [1], less than 100 nM in assay [2] (group less than 100 nmol/L) and less than 1000 nM in assay [3].
For `C=CC(=O)NCc1ccc(Oc2ccc(C(F)(F)F)cc2)c2cnccc12` [Compound 223, N-([8-{4-(Trifluoromethyl)phenoxy}isoquinolin-5-yl]methyl)acrylamide], the 50% growth inhibitory concentration (GI50) was less than 3000 nM in assay [1], less than 100 nM in assay [2] (group less than 100 nmol/L) and less than 1000 nM in assay [3].
In the case of `C=CC(=O)NCc1ncc(Oc2ccc(C(F)(F)F)cc2)c2ccccc12` [Compound 224, N-([4-{4-(Trifluorophenyl)phenoxy}isoquinolin-1-yl]methyl)acrylamide], the GI50 was less than 3000 nM in assay [1], less than 100 nM in assay [2] (group less than 100 nmol/L) and less than 1000 nM in assay [3].
`C=CC(=O)NCc1ccc(Oc2ccc(C(F)(F)F)cc2)c2ccncc12` [Compound 225, N-([5-{4-(Trifluoromethyl)phenoxy}isoquinolin-8-yl]methyl)acrylamide]: the values for the GI50 in assay [1], in assay [2] (group less than 100 nmol/L) and in assay [3] were less than 3000 nM, less than 100 nM and less than 1000 nM, respectively.
Regarding `C=CC(=O)Nc1cnc(Oc2ccc(Cl)cc2)c2ncccc12` [Compound 226, N-{8-(4-chlorophenoxy)-1,7-naphthyridin-5-yl}acrylamide], the concentration for 50% growth inhibition (GI50) in assay [1] was less than 3000 nM; in assay [2] (group less than 100 nmol/L) it was less than 100 nM; in assay [3], less than 1000 nM.
`C=CC(=O)NCc1cnc(Oc2ccc(Cl)cc2)c2ncccc12` [Compound 227, N-[{8-(4-Chlorophenoxy)-1,7-naphthyridin-5-yl}methyl]acrylamide]: the GI50 was less than 3000 nM in assay [1], less than 100 nM in assay [2] (group less than 100 nmol/L) and less than 1000 nM in assay [3].
